Laboratory results reported in patent US5045566A, “Novel imidate insecticides” (ICI Americas Inc., priority 1989, dated 1991).

Columns and labels:
Format in all cases: in vivo
[1] = tested on: Housefly [Musca domestica]; assay: Housefly contact mortality in dishes (HF), 48 hours; settings: μg of test compound per 25 female flies
Outline: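 Acetone solutions (with 0.01% peanut oil) dried onto dish bottoms, then 25 female flies, 1-2 days old, caged over the residue with sugar water. Mortality scored at 48 hours; LC50 from dosage-mortality curves, in μg per 25 female flies, top level 100 μg.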

[2] = tested on: Black Bean Aphid [Aphis fabae (Scop.)]; assay: Black bean aphid spray test on nasturtium (BBA), 48 hours; settings: percent of test compound in sprayed solution
Outline: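 LC50, given as percent test compound in the sprayed liquid, was calculated from dosage-mortality curves using concentrations from 0.05% downward. Sprays in 50:50 acetone-water went to runoff on ~5 cm nasturtiums carrying 25-50 aphids of mixed ages, one day after infestation. Deaths were counted 48 h later under greenhouse conditions.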

[3] = tested on: Tobacco Budworm [Heliothis virescens (Fabricius)] eggs; assay: Tobacco budworm eggs (TBW-E); settings: percent in solution; 2-day old eggs
Outline: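 Step 1: dip 2-day old egg patches in acetone test solutions (top concentration 0.1%). Step 2: hold in dishes with rearing medium at 78° F. Step 3: record mortality after control hatch and feeding.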

[4] = tested on: Cabbage Looper [Trichoplusia ni (Hubner)]; assay: Cabbage looper leaf dip (CL), 3-5 days; settings: percent in solution, second-instar larvae
Outline: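 Squash cotyledons dipped in test solution (acetone-water 50-50, ≤0.1%), dried, offered to 5 second-instar larvae; mortality after 3-5 days gives LC50.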

[5] = tested on: Aster Leafhopper [Macrosteles fascifrens (Stal)]; assay: Aster leafhopper on dipped oat seedlings (LH), 48 hours; settings: percent in solution, adults/nymphs
Outline: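 Three ~10 cm oat seedlings per cup were dipped 2-3 seconds in 50-50 acetone-water compound solutions, dried, and caged with ten adult/nymph leafhoppers. Mortality was counted after 48 hours at concentrations from 0.05% downward. LC50, as percent compound in solution, came from dosage-mortality curves.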

[6] = tested on: Maize weevil [Sitophilus zeamais (Motschulsky)]; assay: Maize weevil on dipped corn seeds (MW), 48 hours; settings: percent in solution, adult weevils
Outline: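 LC50, given as percent of compound in dipping solution, comes from dosage-mortality curves over concentrations descending from 0.01%. Four corn seeds soaked 2-3 s in 50:50 acetone:water solution were dried and held with 10 adult weevils, about 25° C, mortality read after 48 h.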

Structure (SMILES) | LC50 HF [1] [µg] | LC50 BBA [2] [%] | LC50 TBW E (eggs) [3] [%] | LC50 CL [4] [%] | LC50 LH [5] [%] | LC50 MW [6] [%]
Cc1ccc(N=C(OCc2ccc(F)c(Oc3ccccc3)c2)C(C)C)cc1Cl [Compound 356] | < 100 | 0.001 | 0.025 | > 0.1 | < 0.05 | > 0.01
CC(C)C(=Nc1ccc(OC(F)(F)F)cc1)OCc1cccc(Cc2ccccc2)c1 [Compound 542] | > 100 | > 0.05 | > 0.1 | > 0.01 | > 0.05 | > 0.01
CC(C)(C)C(=Nc1ccc(Cl)c(Cl)c1)OCc1cccc(Oc2ccccc2)c1 [Compound 25] | > 100 | > 0.1 | > 0.1 | 0.01 | > 0.05 | > 0.01
CC(C)C(=Nc1ccc(F)c(Cl)c1)OCc1cccc(Oc2ccc(F)c(F)c2)c1 [Compound 217] | 8 | 0.001 | 0.015 | 0.00006 | > 0.05 | 0.0084
CC(C)C(=Nc1cccc(C(F)(F)F)c1)OCc1ccnc(Oc2ccc(Cl)cc2)c1 [Compound 517] | 80 | > 0.05 | 0.04 | 0.0008 | > 0.05 | > 0.01
N#CC(=Nc1ccc(Cl)cc1)OCc1cccc(Oc2ccccc2)c1 [Compound 21] | 7 | > 0.1 | > 0.1 | 0.02 | > 0.05 | > 0.01
CC(C)C(=Nc1ccc(F)c(Cl)c1)OCc1cccc(Cc2ccccc2)c1 [Compound 541] | < 100 | 0.004 | > 0.1 | 0.001 | > 0.05 | > 0.01
CC(C)C(=Nc1ccc(F)c(Cl)c1)OCc1cc(Oc2ccc(Cl)cc2)ccn1 [Compound 516] | > 100 | > 0.05 | > 0.1 | 0.008 | > 0.05 | > 0.01
C=C(C)C(=Nc1ccc(Cl)cc1)OCc1cccc(Oc2ccccc2)c1 [Compound 6] | 17 | 0.001 | 0.015 | 0.02 | > 0.05 | > 0.01
COc1cccc(N=C(OCc2cccc(Oc3ccccc3)c2)C(C)C)c1 [Compound 143] | 10 | 0.002 | < 0.1 | 0.002 | 0.006 | > 0.01
CC(C)C(=Nc1ccc(Br)cc1F)OCc1cccc(Oc2ccc(F)cc2)c1 [Compound 351] | 26 | 0.001 | > 0.1 | 0.0007 | > 0.05 | > 0.01
CCS(=O)(=O)c1ccc(N=C(OCc2cccc(Oc3ccccc3)c2)C(C)C)cc1Cl [Compound 112] | > 100 | 0.05 | > 0.1 | 0.025 | > 0.05 | > 0.01
CSc1ccc(N=C(OCc2ccc(F)c(Oc3ccccc3)c2)C(C)C)cc1 [Compound 353] | < 100 | 0.001 | > 0.1 | > 0.1 | > 0.05 | > 0.01
Fc1ccc(N=C(OCc2cccc(Oc3ccccc3)c2)C(F)(F)C(F)(F)F)cc1Cl [Compound 117] | 55 | > 0.05 | > 0.1 | 0.006 | 0.0003 | > 0.01
CC(C)C(=Nc1ccc(C(F)(F)F)cc1)OCc1cccc(Cc2ccccc2)c1 [Compound 543] | < 100 | 0.003 | > 0.1 | 0.0008 | < 0.05 | > 0.01
CC(C)C(=Nc1ccc2c(c1)OCO2)OCc1cc(Oc2ccc(F)cc2)ccn1 [Compound 515] | 28 | > 0.05 | > 0.1 | 0.0015 | > 0.05 | > 0.01
CC(C)C(=Nc1ccc2c(c1)OCO2)OCc1cccc(Oc2ccc(Cl)cc2)c1 [Compound 240] | 14 | 0.001 | 0.04 | 0.0003 | > 0.05 | > 0.01
CC(C)C(=Nc1ccc(C#N)cc1)OCc1cccc(Oc2ccccc2)c1 [Compound 172] | 5 | > 0.05 | 0.04 | 0.002 | > 0.05 | > 0.01
Cc1cc(N=C(OCc2ccc(F)c(Oc3ccccc3)c2)C(C)C)ccc1Br [Compound 358] | < 100 | 0.0003 | > 0.1 | > 0.1 | < 0.05 | > 0.01
C#CCc1c(F)c(F)c(COC(=Nc2ccc3c(c2)OCO3)C(C)C)c(F)c1F [Compound 547] | < 100 | 0.0006 | 0.05 | 0.0005 | < 0.05 | > 0.01
CC(C)C(=Nc1ccc(F)c(Cl)c1)OCc1cccc(Oc2ccc(Br)cc2)n1 [Compound 492] | 15 | > 0.05 | 0.015 | 0.00028 | > 0.05 | > 0.01
CC(C)C(=Nc1ccc(C(F)(F)F)cc1)OCc1cccc(Oc2ccc(Cl)cc2)c1 [Compound 365] | > 100 | 0.003 | 0.038 | 0.00025 | < 0.05 | > 0.01
CC(C)C(=Nc1ccc(F)c(Cl)c1)OCc1cccc(Oc2ccc(Cl)cn2)c1 [Compound 527] | 47 | 0.03 | 0.035 | 0.00065 | > 0.05 | > 0.01
CC(C)C(=Nc1cc(Cl)ccc1Cl)OCc1cccc(Oc2ccccc2)c1 [Compound 13] | > 100 | 0.003 | > 0.1 | 0.014 | > 0.05 | > 0.01
CC(C)(F)C(=Nc1ccc(F)c(Cl)c1)OCc1cccc(Oc2ccc(F)cc2F)c1 [Compound 315] | > 100 | > 0.05 | > 0.1 | 0.002 | > 0.05 | > 0.01
CC(C)C(=Nc1ccc(F)c(Cl)c1)OCc1cccc(Cc2ccccc2)c1 [Compound 537] | 20 | > 0.05 | > 0.1 | > 0.1 | > 0.05 | > 0.01
CC(C)C(=Nc1ccc([N+](=O)[O-])cc1)OCc1coc(Cc2ccccc2)c1 [Compound 539] | 22 | > 0.05 | > 0.1 | > 0.1 | > 0.05 | > 0.01
COCc1c(F)c(F)c(COC(=Nc2ccc(C(C)(C)C)cc2)C(C)C)c(F)c1F [Compound 544] | > 100 | 0.005 | > 0.1 | > 0.1 | > 0.05 | > 0.01
Cc1c(COC(=Nc2ccc(C(C)(C)C)cc2)C(C)C)cccc1-c1ccccc1 [Compound 536] | > 100 | < 0.05 | > 0.1 | < 0.1 | > 0.05 | > 0.01
CC(C)C(=Nc1ccc(F)c(Cl)c1)OCC#CCOc1ccccc1 [Compound 534] | > 100 | > 0.05 | > 0.1 | < 0.1 | > 0.05 | > 0.01
